We go through one molecule from ChEMBL document CHEMBL4184274 (Bioorg Med Chem Lett, 2018).

The series in a line: in vivo. To be noted: rat, 5 mg/kg.

Molecule `CCN1CCN(Cc2ccc(Nc3ncc(F)c(-c4cc(F)c5nc(C)n(C(C)C)c5c4)n3)nc2)CC1` [ABEMACICLIB] registered an AUC of 3280 ng·h/mL.

The AUC is the area under the concentration-time curve, a measure of exposure.
